# “Also recorded” adds a separate entry of the source. Ends that are not written are not given here.
# Experiments:
# Sprague-Dawley rats = experiment: Non-GLP blood pressure study in anesthetized rats at 50 mg/kg; type: in vivo, rat
# Procedure: In one experiment, 5 male Sprague-Dawley rats received a 50 mg/kg Tat-NR2B9c bolus dose over 3 minutes. Blood pressure was monitored via a femora arterial catheter.
# rats = experiment: Mean arterial pressure (MAP) in rats after Tat peptides with or without anti-inflammatory agents; settings: 7.5 mg/kg bolus; FIG. 7
# Beagle dogs [1] = experiment: Non-GLP dose range study, single slow intravenous injection; type: in vivo, dog; settings: for Severity of angio-neurotic oedema and urticaria: 12.5 mg/kg
# Procedure: A non-GLP study was conducted to examine a dose range for Tat-NR2B9c, administered to Beagle dogs by a single, slow intravenous injection. Two animals (one male and one female Beagle dog) were dosed intravenously with Tat-NR2B9c on seven occasions. There was a 3-4 day wash-out period between the doses. The first dose was given at 2.5 mg/kg. […] There was no reaction in the female dog. […] The third dose was given at 12.5 mg/kg. […] The reaction in the male dog was assessed to be moderate, and in the female animal, the reaction was mild. The next dose was set at 20.0 mg/kg. […] The animal was treated with i.v. administration of benadryl and dexamethasone. BP at 5 minutes post-dosing was recorded as 37/13 mm Hg (nomial BP in a dog is ˜160/90). A decision was made not to dose the female animal.
# The next doses were given in order to better understand the type of reactions seen in preceding doses. The fifth and sixth doses were set at 2.5 and 5.0 mg/kg.
# humans = experiment: Safety, Tolerability and Pharmacokinetic Study in humans: adverse events; type: in vivo, human
# Procedure: We carried out a Safety, Tolerability and Pharmacokinetic Study of Tat-NR2B9c in humans. Subjects were either normal, healthy, non-smoking males or post-menopausal or surgically sterile female subjects with a minimum age of 18 years. The subjects were either administered Tat-NR2B9c, Lot #: 124-134-001B, or were given placebo (Phosphate Buffered Saline), Lot #: 124-134-001A, administered as an intravenous infusion (10±1 minutes). Four subjects were dosed in each of Cohorts 1 to 3, and 10 subjects were dosed in each of Cohorts 4 to 8. All 62 subjects completed the study. Treatment periods for each cohort were as follows: Cohort 1: Sep. 14, 2006; Cohort 2: Sep. 26, 2006; Cohort 3: Oct. 6, 2006; Cohort 4: Oct. 20, 2006; Cohort 5: Nov. 6, 2006; Cohort 6: Dec. 4, 2006; Cohort 7: Dec. 17, 2006; Cohort 8: Feb. 25, 2007.
# The safety assessment was performed on all subjects who received at least 1 dose during the course of the study. The incidents of all adverse events (AEs) were tabulated by treatment and subject number. Absolute values for vital signs, electrocardiogram (ECG) parameters, laboratory parameters and physical examinations were also documented and values outside the nomial range were flagged. Shifts from baseline values were tabulated. AEs were documented using investigator and Medical Dictionary for Regulatory Activities (MedDRA) terms.
# Beagle dogs [2] = experiment: GLP 14-day intravenous toxicity study (CRM Study No. 501448): clinical signs and plasma histamine; type: in vivo, dog
# Procedure: Blood samples (approximately 1 mL) were collected from all animals on Days 1, 6 and 12 at predose, 5 and 15 minutes post injection. Blood samples were collected by venipuncture (jugular, saphenous and cephalic) into tubes containing EDTA. The samples were then centrifuged (within 30 minutes of collection) in a refrigerated centrifuge (ca. 4° C.) at 2700 rpm for 10 minutes. Plasma were separated into a second tube with the appropriate label and stored at −80° C. until analysis at CRM. Plasma samples were used for investigating histamine levels. Samples from animals dosed intravenously with Tat-NR2B9c were analyzed using a validated method.
# [3] = Maximum Tolerated Dose in preclinical animal trials, dogs; settings: dog, in vivo
# Beagle dogs [4] = experiment: GLP cardiovascular telemetry study, escalating doses (CRM Study No. 691106); type: in vivo, dog
# Procedure: In a GLP cardiovascular telemetry study in unrestrained conscious Beagle dogs (CRM Study No. 691106), 6 animals (3 males, 3 females) were administered escalating doses of Tat-NR2B9c (0.25, 1.0, or 5.0 mg/kg gross peptide), with a washout period of 3 days between dose levels. […] Moreover, the time-frame between the low dose (0.25 mg/kg) and the high dose (5.0 mg/kg) was about 6 days, i.e., of insufficient duration to allow the generation of an immune response. The effect is thus caused by a direct degranulation of mast cells causing histamine release.
# Beagle dogs [5] = experiment: GLP cardiovascular telemetry study at 10 mg/kg (CRM Study No. 691429); type: in vivo, dog
# Procedure: To obtain detailed cardiovascular information at the highest dose level tested in the 14-day dog repeated-dose toxicity study (i.e., 10 mg/kg), an additional GLP cardiovascular telemetry study in unrestrained, conscious, Beagle dogs was performed (CRM Study No. 691429). Six animals (3 males, 3 females) received vehicle in the morning and 10 mg/kg Tat-NR2B9c in the afternoon of the same day (at least 4 hours between doses). […] The female animals used in this additional cardiovascular study were obtained from the Charles River colony and were non-nave animals that had been previously used in the first cardiovascular study for Tat-NR2B9c (CRM Study No. 691106).
# [6] = Maximum Tolerated Dose in preclinical animal trials, rats; settings: rat, in vivo
sequence,measurement,setting,value
YGRKKRRQRRRKLSSIESDV [Tat-NR2B9c],Mean arterial pressure,"Sprague-Dawley rats; 50 mg/kg bolus over 3 minutes, all animals, FIG. 6",transient reductions in mean arterial pressure; also recorded: drop in blood pressure
same,Respiratory effects,"Sprague-Dawley rats; rat, 50 mg/kg","decreased tidal volume, respiratory rate and derived minute volume"
same,Effect on MAP (printed MAT) after injection,rats,rapid and transient reduction; also recorded: reduction in blood pressure
same,Reaction,"Beagle dogs [1]; 5.0 mg/kg, female dog",no reaction
same,Reaction,"Beagle dogs [1]; 5.0 mg/kg, male dog",moderate reaction
same,"Vital signs (heart rate, blood pressure, respiratory rate and body temperature)","Beagle dogs [1]; 7.5 mg/kg, both animals",stayed within the normal physiological ranges
same,Reaction,"Beagle dogs [1]; 7.5 mg/kg, female dog",no reaction
same,Reaction,"Beagle dogs [1]; 7.5 mg/kg, male dog",angio-neurotic edema of the soft tissue of the head and urticaria type of reaction
same,Severity of angio-neurotic oedema and urticaria,Beagle dogs [1]; female dog,mild
same,Severity of angio-neurotic oedema and urticaria,Beagle dogs [1]; male dog,moderate
same,Reaction,"Beagle dogs [1]; 20.0 mg/kg, male dog",went into shock
same,Blood pressure at 5 minutes post-dosing,"Beagle dogs [1]; 20.0 mg/kg, male dog, treated with benadryl and dexamethasone",37/13
same,Adverse reactions,Beagle dogs [1]; fifth dose 2.5 mg/kg,reddening of ear and face of the male dog
same,Signs of toxicity,"Beagle dogs [1]; first dose 2.5 mg/kg, male and female dog",did not show any signs of toxicity
same,Conclusion of dose range study,Beagle dogs [1]; high doses,capable of inducing profound transient hypotension and urticaria-like skin reactions
same,AEs of the higher doses at the lower dose range,humans; 0.02 to 1.50 mg/kg,minimal or not present
same,Incidence of AEs vs lower dose groups and placebo,humans; 2.60 and 3.75 mg/kg dose groups,significantly more AEs; also recorded: higher
same,Serious Adverse Events,humans; all doses,No Serious Adverse Events (SAEs) were reported
same,Active treatment subjects with at least 1 AE,humans; all doses 0.02-3.75 mg/kg,73.9%
same,Doses at which several AEs were frequently reported,"humans; decreased blood pressure, paraesthesia, hypoaesthesia, erythema, rash, pruritus, dry mouth, nausea, feeling hot, flushing",≥ 2.60 mg/kg
same,Subjects feeling hot,humans; subjects receiving Tat-NR2B9c,28.3%
same,Subjects feeling hot (count),humans; subjects receiving Tat-NR2B9c,13/46
same,Subjects with dry mouth,humans; subjects receiving Tat-NR2B9c,19.6%
same,Subjects with dry mouth (count),humans; subjects receiving Tat-NR2B9c,9/46
same,Subjects with flushing,humans; subjects receiving Tat-NR2B9c,21.7%
same,Subjects with flushing (count),humans; subjects receiving Tat-NR2B9c,10/46
same,Subjects with pruritis,humans; subjects receiving Tat-NR2B9c,26.1%
same,Subjects with pruritis (count),humans; subjects receiving Tat-NR2B9c,12/46
same,Lethargy and unpalpable pulse as characterized by attending veterinarian,Beagle dogs [2]; 10 mg/kg daily i.v.,severe hypotensive reaction
same,Clinical signs,"Beagle dogs [2]; 10 mg/kg daily i.v., 14 days, all animals",treatment-related clinical signs
same,Change of histamine levels during 14-day repeated dosing,Beagle dogs [2]; any dose level,no consistent increase in histamine levels
same,Plasma histamine levels,"Beagle dogs [2]; immediately following the first administration, naive dogs",increased histamine levels
same,MTD,[3],12.5 mg/kg
same,Dogs with transient drop in blood pressure,Beagle dogs [4]; 5 mg/kg,4 of 6
same,Duration of transient drop in blood pressure,Beagle dogs [4]; 5 mg/kg,approximately 30 minutes
same,Effects on blood pressure,Beagle dogs [4]; 0.25 or 1.0 mg/kg,No effects
same,Time post-dose over which increases in heart rate were observed,Beagle dogs [5],up to 15 minutes
same,Decreases in blood pressure values,Beagle dogs [5]; individual animals at 5 to 10 minutes post-dose,up to 62%
same,Time of maximum effect on heart rate,Beagle dogs [5]; males and females,10 min
same,MTD,[6],100 mg/kg

# Source: US10046060B2, “Co-administration of an agent linked to an internalization peptide with an anti-inflammatory” (NoNO Inc., priority 2007, dated 2018)
